Data taken from US20110092367A1, “Herbicidal Compositions Comprising 4-amino-3,6-dichloropyridine-2-carboxylic Acid” (BASF SE, priority 2008, published 2011).

Assays:
Format in all cases: in vivo
[1] = system: Matricaria chamomilla; test: Greenhouse trial, post-emergence: MATCH; conditions: read-out: % activity, MATCH
Description: (§1) The test plants have been seeded, separately for each species, in plastic containers in sandy loamy soil containing 5% organic matter.
(§2) For the post emergence treatment, the plants were first grown to the 2 leaf station (GS 12). Here, the herbicidal compositions were suspended or emulsified in water as distribution medium and sprayed using finely distributing nozzels.
The plants have been cultivated due to there individual requirements at 10-25° C. and 20-35° C. The plants were irrigated due to there necessity.
In the following experiments, the herbicidal activity for the individual herbicide compounds (solo and mixture applications), the herbicidal succession was assessed 14 days after treatment (DAT).
(§3) The evaluation for the damage on undesired weeds caused by the chemical compositions was carried out using a scale from 0 to 100%, compared to the untreated control plants. Here, 0 means no damage and 100 means complete destruction of the plants.
(§4) Calculation of expected activity of binary mixtures was done by using the Colby-Formula according to Example 1.
E=(X+Y+Z)−(X*Y+X*Z+Y*Z/100)+(X*Y*Z/1000)
Tables 6 to 10 relate to the herbicidal activity, in greenhouse trials, of the individual actives and the combination in post-emergence application 14 DAT.

[2] = system: Sissimbrium officinale; test: Field trial Example 1, successive application: damage on SSYOF
Source text: (§5) Aminiopyralid was used as commercial aquaeous solution having an active ingredient concentration of 240 g/l (Milestone™). Metazachlor was used as a commercial suspension concentrate having an active ingredient concentration of 500 g/l (Butisan S®).
(§6) The performance of aminopyralid applied as an alone treatment at 15, 30 and 50 g a.i./ha applied as an early post emergence treatment and an post emergence treatment in comparison to two different applications including metazachlor at 500 g a.i./ha as an early post emergence application in succession of aminopyralid as a post emergence application at 15 and 30 g a.i./ha was assessed in an oilseed rape field trials.
(§7) The early post emergence treatment was applied by means of fine distributed nozzles at the growth stage (GS) of the crop BBCH 11-12.
(§8) The post emergence treatment was applied by means of fine distributed nozzles at the growth stage (GS) of the crop BBCH 13-14.
(§9) The test period extended over the autumn and spring season (205 days).
(§10) In the following experiments, the herbicidal activity for the individual herbicide compounds (solo application) and of the herbicidal succession was assessed 4 times:
as §3

[3] = system: Apera spica-venti; test: Field trial Example 1, successive application: damage on APESV
Source text: as §5, §6, §7, §8, §9, §10, §3

[4] = system: Lamium purpureum; test: Greenhouse trial, post-emergence: LAMPU; conditions: for % activity 28 DAT: LAMPU
Description: as §1, §2
(§11) The plants have been cultivated due to there individual requirements at 10-25° C. and 20-35° C. The plants were irrigated due to there necessity. […]
as §3, §4

[5] = system: Matricaria inodora; test: Field trial Example 2, combined application: MATIN; conditions: Aminopyralid 7.5 g ai/ha solo
Description: as §5, §3
(§12) The value E, which is to be expected if the activity of the individual compounds is just additive, was calculated using the method of S. R. Colby (1967) “Calculating synergistic and antagonistic responses of herbicide combinations”, Weeds 15, p. 22 ff.
(§13) The performance of aminopyralid, applied as an alone treatment at […] and 15 g ai/ha, and the performance of metazachlor, applied as an alone treatment at 375 and 500 g ai/ha, as well as the mixtures of the both compounds have been assessed in winter oilseed rape field trials. The trials have been conducted in Germany at two locations.
(§14) Post emergence treatment was applied by means of fine distributed nozzels at the growth stage (GS/BBCH 11/12).

[6] = system: Capsella bursa-pasturis; test: Greenhouse trial, post-emergence: CAPBP; conditions: aminopyralid 10 g ai/ha solo, post-emergence (Table 10)
Description: as §1, §2, §11, §3, §4

[7] = system: oilseed rape; test: Field trial Example 1, successive application: phytotoxicity (PHYTOX) on oilseed rape crop; conditions: for PHYTOX (damage on the oilseed rape crop): DAT 205/DALT 190
Source text: as §5, §6, §7, §8, §9, §10
The evaluation for the damage on the oilseed rape crop, the plant injury or phytotoxicity (PHYTOX) caused by the chemical compositions was carried out using a scale from 0 to 100%, compared to the untreated control plants. Here, 0 means no damage and 100 means high injury of the plants.

[8] = system: Alopecurus myosuroides; test: Field trial Example 2, combined application: ALOMY; conditions: Aminopyralid 7.5 g ai/ha solo, 28 DAT
Description: as §5, §3, §12, §13, §14

[9] = 15 g ai/ha, treatment A early post emergence, DAT 25/DALT 10
[10] = 15 g ai/ha, treatment A early post emergence, DAT 65/DALT 50
[11] = 15 g ai/ha, treatment A early post emergence, DAT 176/DALT 161
[12] = 15 g ai/ha, treatment B post emergence, DAT 25/DALT 10
[13] = 15 g ai/ha, treatment B post emergence, DAT 65/DALT 50
[14] = 15 g ai/ha, treatment B post emergence, DAT 176/DALT 161
[15] = 30 g ai/ha, treatment A early post emergence, DAT 25/DALT 10
[16] = 30 g ai/ha, treatment A early post emergence, DAT 65/DALT 50
[17] = 30 g ai/ha, treatment A early post emergence, DAT 176/DALT 161
[18] = 30 g ai/ha, treatment B post emergence, DAT 25/DALT 10
[19] = 30 g ai/ha, treatment B post emergence, DAT 65/DALT 50
[20] = 30 g ai/ha, treatment B post emergence, DAT 176/DALT 161
[21] = 50 g ai/ha, treatment A early post emergence, DAT 25/DALT 10
[22] = 50 g ai/ha, treatment A early post emergence, DAT 65/DALT 50
[23] = 50 g ai/ha, treatment A early post emergence, DAT 176/DALT 161
[24] = 50 g ai/ha, treatment B post emergence, DAT 25/DALT 10
[25] = 50 g ai/ha, treatment B post emergence, DAT 65/DALT 50
[26] = 50 g ai/ha, treatment B post emergence, DAT 176/DALT 161
[27] = aminopyralid 15 g ai/ha, treatment A, DAT 205/DALT 190
[28] = aminopyralid 15 g ai/ha, treatment B, DAT 205/DALT 190
[29] = aminopyralid 30 g ai/ha, treatment A, DAT 205/DALT 190
[30] = aminopyralid 30 g ai/ha, treatment B, DAT 205/DALT 190
[31] = aminopyralid 50 g ai/ha, treatment A, DAT 205/DALT 190
[32] = aminopyralid 50 g ai/ha, treatment B, DAT 205/DALT 190
[33] = Lamium purpureum, post-emergence, 672 h, read-out: % activity 28 DAT, LAMPU

Structure (SMILES): Nc1cc(Cl)nc(C(=O)O)c1Cl [aminopyralid, 4-amino-3,6-dichloropyridine-2-carboxylic acid]
- inhibition at 5 g/ha [1]: 75%
- inhibition at 10 g/ha [1]: 85%
- damage on SSYOF [2, 9]: 33%
- damage on SSYOF [2, 10]: 0%
- damage on SSYOF [2, 11]: 0%
- damage on SSYOF [2, 12]: 53%
- damage on SSYOF [2, 13]: 0%
- damage on SSYOF [2, 14]: 0%
- damage on SSYOF [2, 15]: 71%
- damage on SSYOF [2, 16]: 25%
- damage on SSYOF [2, 17]: 25%
- damage on SSYOF [2, 18]: 60%
- damage on SSYOF [2, 19]: 27%
- damage on SSYOF [2, 20]: 27%
- damage on SSYOF [2, 21]: 86%
- damage on SSYOF [2, 22]: 50%
- damage on SSYOF [2, 23]: 50%
- damage on SSYOF [2, 24]: 72%
- damage on SSYOF [2, 25]: 32%
- damage on SSYOF [2, 26]: 32%
- damage on SSYOF [2, 27]: 0%
- damage on SSYOF [2, 28]: 0%
- damage on SSYOF [2, 29]: 23%
- damage on SSYOF [2, 30]: 50%
- damage on SSYOF [2, 31]: 62%
- damage on SSYOF [2, 32]: 52%
- damage on APESV [3, 10]: 28%
- damage on APESV [3, 11]: 28%
- damage on APESV [3, 13]: 32%
- damage on APESV [3, 14]: 32%
- damage on APESV [3, 16]: 47%
- damage on APESV [3, 17]: 47%
- damage on APESV [3, 19]: 38%
- damage on APESV [3, 20]: 38%
- damage on APESV [3, 22]: 85%
- damage on APESV [3, 23]: 85%
- damage on APESV [3, 25]: 55%
- damage on APESV [3, 26]: 55%
- damage on APESV [3, 27]: 28%
- damage on APESV [3, 28]: 45%
- damage on APESV [3, 29]: 47%
- damage on APESV [3, 30]: 38%
- damage on APESV [3, 31]: 85%
- damage on APESV [3, 32]: 55%
- % activity 28 DAT ([4]; aminopyralid 5 g ai/ha solo, post-emergence (Table 10)): 20%
- % activity 28 DAT ([4]; aminopyralid 5 g ai/ha solo, post-emergence (Tables 7-9)): 30%
- % activity 28 DAT ([4]; aminopyralid 10 g ai/ha solo, post-emergence (Table 10)): 30%
- % activity 28 DAT ([4]; aminopyralid 10 g ai/ha solo, post-emergence (Tables 7-9)): 65%
- inhibition at 5 g/ha [4, 33]: 20%
- inhibition at 10 g/ha [4, 33]: 30%
- % activity ([5]; 28 DAT): 78%
- % activity ([5]; 29 DAT): 87%
- % activity 28 DAT [6]: 25%
- PHYTOX (damage on oilseed rape crop) [7, 9]: 11%
- PHYTOX (damage on oilseed rape crop) [7, 10]: 3%
- PHYTOX (damage on oilseed rape crop) [7, 11]: 2%
- PHYTOX (damage on oilseed rape crop) [7, 12]: 0%
- PHYTOX (damage on oilseed rape crop) [7, 13]: 0%
- PHYTOX (damage on oilseed rape crop) [7, 14]: 0%
- PHYTOX (damage on oilseed rape crop) [7, 15]: 27%
- PHYTOX (damage on oilseed rape crop) [7, 16]: 30%
- PHYTOX (damage on oilseed rape crop) [7, 17]: 0%
- PHYTOX (damage on oilseed rape crop) [7, 18]: 0%
- PHYTOX (damage on oilseed rape crop) [7, 19]: 0%
- PHYTOX (damage on oilseed rape crop) [7, 20]: 0%
- PHYTOX (damage on oilseed rape crop) [7, 21]: 40%
- PHYTOX (damage on oilseed rape crop) [7, 22]: 50%
- PHYTOX (damage on oilseed rape crop) [7, 23]: 0%
- PHYTOX (damage on oilseed rape crop) [7, 24]: 7%
- PHYTOX (damage on oilseed rape crop) [7, 25]: 0%
- PHYTOX (damage on oilseed rape crop) [7, 26]: 0%
- PHYTOX (damage on the oilseed rape crop) ([7]; aminopyralid 15 g ai/ha, treatment A): 0%
- PHYTOX (damage on the oilseed rape crop) ([7]; aminopyralid 15 g ai/ha, treatment B): 0%
- PHYTOX (damage on the oilseed rape crop) ([7]; aminopyralid 30 g ai/ha, treatment A): 0%
- PHYTOX (damage on the oilseed rape crop) ([7]; aminopyralid 30 g ai/ha, treatment B): 0%
- PHYTOX (damage on the oilseed rape crop) ([7]; aminopyralid 50 g ai/ha, treatment A): 0%
- PHYTOX (damage on the oilseed rape crop) ([7]; aminopyralid 50 g ai/ha, treatment B): 0%
- % activity [8]: 60%
